Here are results for 3 compounds from patent US20110045083A1, “USE LARCH WOOD FOR TREATING INFLAMMATION” (priority 2007, published 2011).

For one assay, the target named is 5-lipoxygenase (5-LOX). Conditions: read-out: 5-LOX inhibitory activity IC50, cited from earlier work.
The subject of another assay is IL-6 and TNF-α. Put plainly: Sow feeding trial, Postpartum Dysgalactia Syndrome, inflammation markers. Type of assay: in vivo. The settings on record: sows, relative to untreated animals at allocation day. The method, then:
Principle: Evaluation of the antiinflammatory activity of Larch sawdust in order to reduce the prevalence of Postpartum Dysgalactia Syndrome in sows under field conditions. IL-6 and TNF-α were analyzed as markers of inflammatory stress.
Materials and Methods: Sows with no clinical signs of disease were used from a farm of approximately 900 sows under production. Trial animals were sows of the same genotype (Dalland hybrids), chosen in terms of achieving homogenity regarding parity, bodyweight, previous production parameters (litter size, litter average bodyweight etc.) and previous health status. The farm was selected due to previous history of Post Partum Dysgalactia Syndrome occurrence. The sows were randomly allocated to a control group (n=5), a positive control group (n=5) and a larch sawdust (n=5) group. The whole trial period was 35 days beginning at 7 days prior to farrow until the day of weaning.
1% by weight of larch sawdust was added as an anti-inflammatory ingredient to sow feed (dry period and lactation feed). […] The raw materials were well accepted at an inclusion level of 1% by weight in the diet as it was shown by previous trials performed.
Thus, during the whole trial period the animals were fed as follows:
1. Control group (99% Basic diet and 1% Corn starch) 2. Larch group (99% Basic diet and 1% Larch) 3. Positive control group (99% Basic diet and 1% Corn starch)
Moreover, the animals of the positive control group were injected a single 2 ml dosage of an antiinflammatory drug (meloxicam) at the day of parturition, while the animals of all the other groups were injected with a single 2 ml dose of normal saline at the same day.
Blood samples were collected from all trial animals at allocation day (7 days before farrowing day) and at 24 and 72 hours post farrowing from all sows for inflammation markers evaluation (serum TNF-α, plasma IL-6). Additionally the milk production index for all sows was calculated, while production and health parameters of sows and their litters were recorded.
The cytokines results were expressed as n-fold increase of cytokine expression in relation to untreated animals at allocation day.

The test system of assay [1] is 5-LOX mediated LT biosynthesis. The assay is described as follows: LT biosynthesis inhibition assay in activated neutrophile granulocytes, LTB4 EIA. Type of assay: cell-based, human. The procedure: 1.) LT biosynthesis inhibition assay
The assay was performed as described in [Michael Adams, Olaf Kunert, Ernst Haslinger, Rudolf Bauer: Inhibition of Leukotriene Biosynthesis by Quinolone Alkaloids from the Fruits of Evodia Rutaecarpa; Planta med. 2004 (70): 904-908] with some modifications.
Principle: Activated neutrophile granulocytes with 5-LOX activity are incubated with a defined concentration of test sample and arachidonic acid. After stopping the enzymatic reaction by addition of formic acid and centrifugation to remove cellular fragments, the produced LTB4 is quantified in the supernatant by means of an LTB4 EIA kit.
Isolation of human neutrophile granulocytes: 30 ml of venous human blood from healthy voluntary donors are collected with a Vacutainer™ (BD, Plymouth, UK) system containing a 0.219 M pre-analytical citric acid solution. The blood is immediately transferred to a falcon tube containing 20 ml of sedimentation solution (1% NaCl, 6% dextran T-500) and left to separate for 60 min at 4° C. While most of the dense erythrocytes sink into the dextran layer, the lighter blood fractions remain in the upper layer which is then removed and centrifuged at 1600 rpm (4° C., 10 min) to concentrate the leukocytes. The plasma supernatant is discarded, the pellet is resuspended in 10 ml of a wash buffer (10% CaCl2.2H2O p.a.; 0.1% anhydrous d-glucose; 0.2% MgCl2.6H2O; 0.04% KCl; 1.75% TRIS p.a.; with the pH adjusted to 7.6 with 1N HCl). After centrifugation at 1400 rpm (4° C., 10 min) and removal of the supernatant the resulting pellet is resuspended in 10 ml of a hypotonic lysis buffer (0.17% NH4Cl; 0.2% TRIS; pH 7.2) and gently shaken for 5 min at room temperature to destroy remaining erythrocytes. The suspension is submitted to another centrifugation at 1400 rpm (4° C., 5 min). The pellet is resuspended in 10 ml of wash buffer and then centrifuged at 1400 rpm (4° C., 15 min). The resulting pellet which now mainly contains neutrophile granulocytes is resuspended in 2 ml of TRIS buffer (1.75% TRIS p.a., 0.9% NaCl, pH 7.4), tested for vitality, quantified and then diluted to a cell concentration of 4500 cells/ml with TRIS buffer.
Cell vitality test: 50 μl of cell suspension and 10 μl of trypan blue solution (0.4%) (Sigma Chemical Co. Steinheim, Germany) are mixed on a glass object carrier and examined with a light microscope at 1000 fold magnification. Dead cells appear larger and darker due to absorption of trypan blue. The vitality of the cells must be >95%.
Determination of cell concentration: 10 μl of granulocyte cell suspension are dyed using 990 μl aqueous TURKS solution (Merck) and quantified in a “Neubauer” chamber (Assistent, Germany).
Sample preparation: samples are dissolved in an appropriate amount of ethanol p.a. to be added to the test mixture resulting in screening concentrations of 50 μM for pure compounds and 20 μg/ml for crude. The commercially available 5-LOX inhibitor zileuton (Sequoia Research Products Ltd., UK) is used as a positive control at a concentration of 10 μM representing its IC50 in this test system.
Incubation procedure: The incubation mixture in a 96-well flat bottom microtitre plate (Bibby Sterilin, Staffordshire, UK) consists of 265 μl leukocyte suspension, with 75.5 μM CaCl2, 0.152 μM […] (ETYA) as an inhibitor of the 12-LOX pathway, 0.642 μM Ca ionophore A23187 and 4.43 μM arachidonic acid, the substrate of the 5-LOX pathway, along with 5 μl of each test solution or 5 μl of EtOH p.a. in control wells. After incubation for 10 min at 37° C. in darkness, the reaction is stopped by addition of 20 μl of 10% formic acid. The microtitre plate is centrifuged for 15 min at 1400 rpm to separate free LTB4 from cellular particles before the supernatant is diluted 40 fold in EIA buffer and applied to a competitive LTB4 EIA kit (Assay Designs Inc.).
LTB4 EIA: The plate is incubated for 2 hours at room temperature on an orbital shaker. […]

“And” between values parts separate entries of the source, which are not always exact repeats. Identical values can stand only once. Like-named read-outs stand apart in the source and are kept apart here.

As to `CC(C)C1=CC2=CC[C@@H]3[C@](C)(CCC[C@@]3(C)C(=O)O)[C@H]2CC1` [abietic acid], the IC50 is 29.5 ± 1.29 µM at 5-lipoxygenase (5-LOX) (Ulusu et al. 2002, isolated from cones of Abies nordmanniana ssp. equitraojani) and around 30 µM at 5-lipoxygenase (5-LOX) (known from the art).
For `Cc1cnc(NC(=O)C2=C(O)c3ccccc3S(=O)(=O)N2C)s1` [Positive controls, meloxicam], in the assay with IL-6 and TNF-α (24 hours PP), the “Relative expression of IL6” value stood at 1.86 ± 0.92 n fold and the “Relative expression of TNFα” value was 0.87 ± 0.29 n fold. In the assay with IL-6 and TNF-α (72 hours PP), the “Relative expression of IL6” value is recorded as 1.08 ± 0.78 n fold and the “Relative expression of TNFα” value is 0.98 ± 0.77 n fold.
Take `CC(c1cc2ccccc2s1)N(O)C(N)=O` (centres unmarked) [Zileuton, reference compound]: the IC50 in assay [1] was 5 µM; in assay [1] (Homo sapiens), 10 µM and 1.2 µg/mL.
